Test results published in the supplement of paper PMC11061612.

Tests used:
[1] = test system: NCI-H596 (Other Solid Carcinomas); assay: combination Emax (second highest fraction inhibited in the dose matrix, 72 h); higher = more inhibition; extreme values may be limits of the assay
Method in brief: (§1)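 Bliss excess equals the observed combination effect minus the expected value EA + EB − EA·EB, where EA and EB are the effects of each agent alone. Combination Emax is the second-highest inhibition within the matrix. Inhibition was scaled from CellTiter-Glo 2.0 luminescence, with 0 set by vehicle wells and 1 by blank wells, after 72 hours of two-drug dosing of cells plated in 1536-well plates.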

[2] = test system: OAW-28 (Ovarian Carcinoma); assay: as above
Method in brief: as §1

## CS(=O)(=O)CCNCc1ccc(-c2ccc3ncnc(Nc4ccc(OCc5cccc(F)c5)c(Cl)c4)c3c2)o1 [Lapatinib] + NC1(c2ccc(-c3nc4ccn5c(=O)[nH]nc5c4cc3-c3ccccc3)cc2)CCC1 [MK-2206] (first compound max 10 µM, 7x7, partner max 10 µM)
[1]
  combination Emax: 0.822
[2]
  combination Emax: 0.898
